“And” between values parts separate entries of the source, which are not always exact repeats. Equal entries are not always repeated. Where two headings read alike, the source gives them in different places.
Legend:
[1] = target: T1, rat adrenergic α1B receptor (Rattus norvegicus, UniProt P15823); assay: Radioligand binding, adrenergic α1B ([3H]Prazosin); set-up: species or system Wistar Rat; conditions: for Percentage inhibition of ligand binding, Adrenergic α1B (0.1 μM): repeat datapoints each shown
T1 construct: rat adrenergic α1B receptor obtained from Wistar Rat liver; from tissue; host or cells: Wistar rat liver
T1 sequence (P15823 1-515): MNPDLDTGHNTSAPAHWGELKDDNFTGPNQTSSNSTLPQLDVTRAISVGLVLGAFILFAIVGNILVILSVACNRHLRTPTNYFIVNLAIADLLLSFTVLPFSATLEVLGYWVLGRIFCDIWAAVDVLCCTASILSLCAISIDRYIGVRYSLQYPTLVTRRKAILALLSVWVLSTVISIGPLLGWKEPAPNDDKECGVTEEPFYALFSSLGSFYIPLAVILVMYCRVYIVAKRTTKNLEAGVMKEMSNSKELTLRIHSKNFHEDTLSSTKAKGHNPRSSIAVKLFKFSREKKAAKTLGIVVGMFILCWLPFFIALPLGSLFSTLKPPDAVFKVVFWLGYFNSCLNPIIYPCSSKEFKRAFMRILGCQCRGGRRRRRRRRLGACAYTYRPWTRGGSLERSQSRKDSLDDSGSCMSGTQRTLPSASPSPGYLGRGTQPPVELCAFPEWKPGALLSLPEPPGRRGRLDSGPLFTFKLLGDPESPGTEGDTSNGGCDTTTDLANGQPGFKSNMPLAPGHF
Procedure, shortened: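 Specific binding, taken as total minus that remaining with 10 μM phentolamine, is measured after filtration and counting. Rat liver receptor preparation and 0.25 nM [3H]prazosin are incubated with compound in 50 mM Tris-HCl (pH 7.4, 0.5 mM EDTA) at 25° C for 60 min. Activity is reported as percent inhibition.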

[2] = target: T2, human recombinant adrenergic α2A receptor (Homo sapiens, UniProt P08913); assay: Radioligand binding, adrenergic α2A ([3H]MK-912); conditions: [3H]MK-912
T2 construct: expressed in transfected cells; host or cells: insect Sf9 cells
T2 sequence (P08913 1-465): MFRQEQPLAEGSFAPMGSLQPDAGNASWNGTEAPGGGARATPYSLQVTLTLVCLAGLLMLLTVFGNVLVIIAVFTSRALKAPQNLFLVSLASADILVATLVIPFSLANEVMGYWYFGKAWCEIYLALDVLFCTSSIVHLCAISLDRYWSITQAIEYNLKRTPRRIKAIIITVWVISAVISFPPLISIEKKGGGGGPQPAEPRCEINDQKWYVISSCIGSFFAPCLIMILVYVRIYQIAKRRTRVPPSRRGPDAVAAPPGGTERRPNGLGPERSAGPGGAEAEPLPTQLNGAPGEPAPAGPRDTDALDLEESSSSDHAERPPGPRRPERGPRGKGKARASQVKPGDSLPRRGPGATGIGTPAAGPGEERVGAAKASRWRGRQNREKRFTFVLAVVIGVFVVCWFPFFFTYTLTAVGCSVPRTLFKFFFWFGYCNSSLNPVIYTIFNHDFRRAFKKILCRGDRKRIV
Procedure, shortened: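 Displacement of 1 nM [3H]MK-912 from receptor produced in insect Sf9 cells was measured after 60 min at 25 °C. Readout: percent inhibition of specific binding.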

[3] = target: T3, human recombinant adrenergic α2B receptor (Homo sapiens, UniProt P18089); assay: Radioligand binding, adrenergic α2B ([3H]Rauwolscine); conditions: for Percentage inhibition of ligand binding, Adrenergic α2B (0.03 μM): repeat datapoints each shown
T3 construct: expressed in transfected cells; host or cells: CHO-K1
T3 sequence (P18089 1-450): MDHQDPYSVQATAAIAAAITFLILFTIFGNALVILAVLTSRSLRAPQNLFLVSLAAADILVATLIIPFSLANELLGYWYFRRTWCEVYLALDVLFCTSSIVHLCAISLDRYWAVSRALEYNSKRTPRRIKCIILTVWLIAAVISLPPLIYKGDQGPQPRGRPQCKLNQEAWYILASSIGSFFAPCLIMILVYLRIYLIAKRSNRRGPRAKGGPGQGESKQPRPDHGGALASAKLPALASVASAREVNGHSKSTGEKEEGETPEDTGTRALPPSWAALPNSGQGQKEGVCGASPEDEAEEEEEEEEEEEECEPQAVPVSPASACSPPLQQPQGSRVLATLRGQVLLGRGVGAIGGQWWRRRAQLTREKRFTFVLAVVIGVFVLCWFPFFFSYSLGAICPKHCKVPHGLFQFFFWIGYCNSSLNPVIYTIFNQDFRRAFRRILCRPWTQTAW
Procedure, shortened: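 Membranes from CHO-K1 cells expressing human recombinant α2B, in 50 mM Tris-HCl pH 7.4, 12.5 mM MgCl2, 1 mM EDTA, 0.2% BSA, incubated with compound and 2.5 nM [3H]Rauwolscine, 60 min, 25 °C.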

[4] = compound at 0.1 μM, repeat datapoints each shown, 0.1 µM

Cc1cnc2c(c1)c1c(n2CC(N)c2ccc(C#N)cc2)CCN(C)C1 (single isomer, unassigned) [159b]
Percentage inhibition of ligand binding, Adrenergic α1B ([1]; 0.1 μM compound, 0.1 µM): 53%
Percentage inhibition of ligand binding, Adrenergic α2A ([2]; 0.1 μM compound): −12%
Percentage inhibition of ligand binding, Adrenergic α2B ([3]; 0.03 μM compound, 0.03 µM): 52%

Cc1cnc2c(c1)c1c(n2CC(N)c2ccc(C#N)cc2)CCNC1 (single isomer, unassigned) [160a]
Percentage inhibition of ligand binding, Adrenergic α1B ([1]; 0.1 μM compound, 0.1 µM): 35%
Percentage inhibition of ligand binding, Adrenergic α2A ([2]; 0.1 μM compound, 0.1 µM): −12%
Percentage inhibition of ligand binding, Adrenergic α2B ([3]; 0.03 μM compound, 0.03 µM): 43%

Cc1cnc2c(c1)c1c(n2CC(N)c2ccc(C#N)cc2)CCNC1 (single isomer, unassigned) [160b]
Percentage inhibition of ligand binding, Adrenergic α1B ([1]; 0.1 μM compound, 0.1 µM): 65%
Percentage inhibition of ligand binding, Adrenergic α2A ([2]; 0.1 μM compound, 0.1 µM): 5%
Percentage inhibition of ligand binding, Adrenergic α2B ([3]; 0.03 μM compound, 0.03 µM): 41%

Cc1ccc2c(c1)c1c(n2CC(C)(O)c2ccc(C)nc2)CN(C)CC1 (single isomer, unassigned) [196a]
Percentage inhibition of ligand binding, Adrenergic α1B ([1]; 0.03 μM compound): 30%
Percentage inhibition of ligand binding, Adrenergic α1B ([1]; 0.1 μM compound, 0.1 µM): 54.6%
Percentage inhibition of ligand binding, Adrenergic α2A ([2]; 0.03 μM compound): 37%
Percentage inhibition of ligand binding, Adrenergic α2A ([2]; 0.1 μM compound, 0.1 µM): 58% and 71%
Percentage inhibition of ligand binding, Adrenergic α2B ([3]; 0.03 μM compound, 0.03 µM): 93% and 103%

OCCN1CCc2c(c3cc(Cl)ccc3n2CC(O)c2ccncc2)C1 (single isomer, unassigned) [II-93a]
Percentage inhibition of ligand binding, Adrenergic α1B ([1]; compound at 0.1 μM): 6%
Percentage inhibition of ligand binding, Adrenergic α2A ([2]; compound at 0.1 μM, 0.1 µM): 7%
Percentage inhibition of ligand binding, Adrenergic α2B ([3]; compound at 0.03 μM): 24%

OCCN1CCc2c(c3cc(Cl)ccc3n2CC(O)c2cccnc2)C1 (single isomer, unassigned) [II-94b]
Percentage inhibition of ligand binding, Adrenergic α1B ([1]; compound at 0.1 μM): 7%
Percentage inhibition of ligand binding, Adrenergic α2A ([2]; compound at 0.1 μM, 0.1 µM): −5%
Percentage inhibition of ligand binding, Adrenergic α2B ([3]; compound at 0.03 μM, 0.03 µM): 24%

Cc1cnc2c(c1)c1c(n2CC(C)(O)c2cccnc2)CCN(C)C1 (single isomer, unassigned) [II-99a]
Percentage inhibition of ligand binding, Adrenergic α1B ([1]; compound at 0.1 μM, 0.1 µM): 12%
Percentage inhibition of ligand binding, Adrenergic α2A ([2]; compound at 0.1 μM, 0.1 µM): 24%
Percentage inhibition of ligand binding, Adrenergic α2B ([3]; compound at 0.03 μM, 0.03 µM): 49%

Cc1cnc2c(c1)c1c(n2CC(C)(O)c2cccnc2)CCN(C)C1 (single isomer, unassigned) [II-99b]
Percentage inhibition of ligand binding, Adrenergic α1B ([1]; compound at 0.1 μM, 0.1 µM): 5%
Percentage inhibition of ligand binding, Adrenergic α2A ([2]; compound at 0.1 μM, 0.1 µM): 16%
Percentage inhibition of ligand binding, Adrenergic α2B ([3]; compound at 0.03 μM, 0.03 µM): 7%

Cc1cnc2c(c1)c1c(n2CC(O)c2ccc(C)nc2)CCN(C)C1 (single isomer, unassigned) [II-100b]
Percentage inhibition of ligand binding, Adrenergic α1B ([1]; compound at 0.1 μM): 24%
Percentage inhibition of ligand binding, Adrenergic α2A ([2]; compound at 0.1 μM, 0.1 µM): 4%
Percentage inhibition of ligand binding, Adrenergic α2B ([3]; compound at 0.03 μM, 0.03 µM): 1%

Cc1ccc2c(c1)c1c(n2CC(O)c2ccncc2)CN(C)CC1 (centres unmarked) [8a]
Percentage inhibition of ligand binding, Adrenergic α1B (0.1 μM) ([1]; compound at 0.1 μM, 0.1 µM): 39%
Percentage inhibition of ligand binding, Adrenergic α2A (0.1 μM) [2, 4]: 15%
Percentage inhibition of ligand binding, Adrenergic α2B (0.03 μM) ([3]; compound at 0.03 μM, 0.03 µM): 22%

Cc1ccc2c(c1)c1c(n2CC(C)(O)c2cccnc2)CN(C)CC1 (centres unmarked) [14b, 1-(2,6-dimethyl-1,2,3,4-tetrahydro-3-carbolin-9-yl)-2-pyridin-3-yl-propan-2-ol]
Percentage inhibition of ligand binding, Adrenergic α1B (0.1 μM) ([1]; compound at 0.1 μM, 0.1 µM): 25%
Percentage inhibition of ligand binding, Adrenergic α2A (0.1 μM) [2, 4]: −6%
Percentage inhibition of ligand binding, Adrenergic α2B (0.03 μM) ([3]; compound at 0.03 μM, 0.03 µM): 14%

Cc1ccc2c(c1)c1c(n2CC(C)(O)c2ccc(C)nc2)CCN(C)C1 (centres unmarked) [29b]
Percentage inhibition of ligand binding, Adrenergic α1B (0.1 μM) ([1]; compound at 0.1 μM, 0.1 µM): 14%
Percentage inhibition of ligand binding, Adrenergic α2A (0.1 μM) [2, 4]: 10%
Percentage inhibition of ligand binding, Adrenergic α2B (0.03 μM) ([3]; compound at 0.03 μM, 0.03 µM): 46%

CN1CCc2c(c3cc(Cl)ccc3n2CC(C)(O)c2cccnc2)C1 (centres unmarked) [31b]
Percentage inhibition of ligand binding, Adrenergic α1B (0.1 μM) ([1]; compound at 0.1 μM, 0.1 µM): 3%
Percentage inhibition of ligand binding, Adrenergic α2A (0.1 μM) [2, 4]: 14%
Percentage inhibition of ligand binding, Adrenergic α2B (0.03 μM) ([3]; compound at 0.03 μM, 0.03 µM): 36%

Cc1cnc2c(c1)c1c(n2CCc2ccc(C)nc2)CCN2CCCC12 (centres unmarked) [74b, 10-methyl-7-(2-(6-methylpyridin-3-yl)ethyl)-2,3,5,6,7,1c-hexahydro-1H-pyrido[3′,2′:4,5]pyrrolo[2,3-g]indolizine]
Percentage inhibition of ligand binding, Adrenergic α1B (0.1 μM) ([1]; compound at 0.1 μM, 0.1 µM): 28%
Percentage inhibition of ligand binding, Adrenergic α2A (0.1 μM) [2, 4]: 14%
Percentage inhibition of ligand binding, Adrenergic α2B (0.03 μM) ([3]; compound at 0.03 μM, 0.03 µM): 27%

Cc1ccc2c(c1)c1c(n2C(C)C(O)c2ccncc2)CCN(C)C1 (centres unmarked) [127b]
Percentage inhibition of ligand binding, Adrenergic α1B ([1]; 0.1 μM compound): 13%
Percentage inhibition of ligand binding, Adrenergic α2A ([2]; 0.1 μM compound): 4%
Percentage inhibition of ligand binding, Adrenergic α2B ([3]; 0.03 μM compound, 0.03 µM): 1%

Cc1ccc2c(c1)c1c(n2CC(C)(O)c2cccnc2)CNCC1 (centres unmarked) [128b]
Percentage inhibition of ligand binding, Adrenergic α1B ([1]; 0.1 μM compound, 0.1 µM): 45%
Percentage inhibition of ligand binding, Adrenergic α2A ([2]; 0.1 μM compound, 0.1 µM): 22%
Percentage inhibition of ligand binding, Adrenergic α2B ([3]; 0.03 μM compound, 0.03 µM): 54%

Cc1ccc2c(c1)c1c(n2CC(O)c2ccncc2C)CCN(C)C1 (centres unmarked) [133a]
Percentage inhibition of ligand binding, Adrenergic α1B ([1]; 0.1 μM compound, 0.1 µM): 57%
Percentage inhibition of ligand binding, Adrenergic α2A ([2]; 0.1 μM compound, 0.1 µM): 13%
Percentage inhibition of ligand binding, Adrenergic α2B ([3]; 0.03 μM compound, 0.03 µM): 52%

Cc1ccc2c(c1)c1c(n2CC(O)c2cn[nH]c2)CCN(C)C1 (centres unmarked) [II-106b]
Percentage inhibition of ligand binding, Adrenergic α1B (0.1 μM) ([1]; compound at 0.1 μM): 31%
Percentage inhibition of ligand binding, Adrenergic α2A (0.1 μM) ([2]; compound at 0.1 μM, repeat datapoints each shown): 8%
Percentage inhibition of ligand binding, Adrenergic α2B (0.03 μM) ([3]; compound at 0.03 μM): 36%

Cc1ccc2c(c1)c1c(n2CC(O)c2ccc(C#N)cc2)CCNC1 (centres unmarked) [II-116]
inhibition at 0.1 µM ([1]; read-out: Percentage inhibition of ligand binding, Adrenergic α1B (0.1 μM), compound at 0.1 μM, repeat datapoints each shown): 4%
inhibition at 0.1 µM ([2]; read-out: Percentage inhibition of ligand binding, Adrenergic α2A (0.1 μM), compound at 0.1 μM, repeat datapoints each shown): 3%
inhibition at 0.03 µM ([3]; read-out: Percentage inhibition of ligand binding, Adrenergic α2B (0.03 μM), compound at 0.03 μM, repeat datapoints each shown): 43%

Cc1ccc2c(c1)c1c(n2CC(N)c2ccncc2)CC2CCC1N2C (centres unmarked) [compound 155]
inhibition at 0.1 µM ([1]; 0.1 μM compound, read-out: Percentage inhibition of ligand binding, Adrenergic α1B): 15%
inhibition at 0.1 µM ([2]; 0.1 μM compound, read-out: Percentage inhibition of ligand binding, Adrenergic α2A): 14%
inhibition at 0.03 µM ([3]; 0.03 μM compound, read-out: Percentage inhibition of ligand binding, Adrenergic α2B): 36%

— patent US9550782B2, “Compounds and methods for treating diabetes” (Medivation Technologies, Inc., priority 2011, dated 2017)
